Data published in patent US9174998B2, “(6S,9aS)-N-benzyl-6-[(4-hydroxyphenyl)methyl]-4,7-dioxo-8-({6-[3-(piperazin-1-yl)azetidin-1-yl]pyridin-2-yl}methyl)-2-(prop-2-en-1-yl)-octahydro-1H-pyrazino[2,1-c][1,2,4]triazine-1-carboxamide compound” (Eisai R&D Management Co., Ltd., priority 2013, dated 2015).
Values after ≈ are worked out from the molar mass of the structure shown.

Tests used:
[1] = system: human chronic myologenous leukemia cell strain K562; assay: Anti-tumor effect in human K562 subcutaneous transplantation model; details: day 28
[2] = system: Wnt signal; assay: Detection of Wnt signal (TOPglow luciferase reporter, LiCl-stimulated); assay type: cell-based; details: Homo sapiens; HEK293 clone carrying pNeo-TOP reporter; LiCl stimulation; luciferase luminescence; read-out: Test Example 1 IC50 (concentration required for inhibiting the Wnt signal activity by 50%)
Method in brief: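 Stable HEK293 clone carrying a TOPglow TCF/Wnt-responsive luciferase reporter, stimulated with 80 mM LiCl in the diluted sample medium alongside compound; luminescence read with Bright-Glo 6 h after addition. IC50 derived from activity scaled between LiCl-only wells (100%) and wells lacking both LiCl and sample (0%).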

[3] = Evaluation of metabolic stability; assay type: in vitro ADME, human; details: 0.2 mg/mL HLM, 0.1 μM test substance, 15 minutes at 37° C., with vs without NADPH production
Method in brief: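 Pooled human liver microsomes (0.2 mg/mL) in 0.1 M potassium phosphate pH 7.4 with EDTA, MgCl2 and an NADPH-generating system (NADP+, glucose-6-phosphate, G6PDH). Residual ratio by LC-MS/MS, comparing with versus without NADPH generation.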

[4] = Evaluation of solubility (DMSO stock into PBS, HPLC-UV); assay type: physicochemical; details: aqueous buffer, kinetic from dmso stock; Dulbecco's phosphate-buffered saline pH 7, room temperature, about 15 minutes shaking; values greater than 200 μM regarded as 200 μM; read-out: Test Example 3 solubility
Method in brief: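 Kinetic solubility: 20 mM DMSO stock spiked into Dulbecco's PBS pH 7, shaken about 15 min at room temperature, then suction-filtered; filtrate quantified by HPLC-UV against a 200 μM DMSO standard. Values above 200 μM are capped at 200 μM.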

[5] = PAMPA test (parallel artificial membrane permeability assay); assay type: in vitro ADME; details: phosphate buffer pH 6.8, about 200 μM, about 5 hours, room temperature, read-out: Test Example 4 membrane permeation coefficient Pe
Method in brief: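 Compounds at about 200 μM in pH 6.8 phosphate buffer with about 1% DMSO on the donor side. Transport across a lipid-precoated PVDF membrane with shaking at 350 rpm, room temperature, about 5 h. Donor and acceptor concentrations measured by HPLC-UV; Pe (cm/s) calculated from these.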

[6] = Evaluation of solubility (Examples 25 and 26), visual judgment; assay type: physicochemical; details: aqueous buffer, thermodynamic from solid; Dulbecco's phosphate-buffered saline pH 7; about 10 mg sample, test solution added in 0.1 mL portions until dissolved
Method: About 10 mg of a sample was weighed accurately and placed in a 10-mL polypropylene test tube, a test solution shown below was added thereto by portions (0.1 mL) until the sample was dissolved completely. When the test solution was added, the mixed solution was stirred intermittently in a range from about 30 seconds to 3 minutes using a Vortex mixer every time the test solution was added. The solubility (mM) of the sample was calculated from the added amount of the test solution required until the presence of any solid material was not observed by visual judgment.
Test solution: GIBCO (registered trade name) (Dulbecco's phosphate-buffered saline having a pH value of 7, Invitrogen Corporation)

| SMILES | the number of individuals in which a tumor was not observed by visual judgment/total number of mice ([1]; Dasatinib 5 mg/kg alone, oral qd, 5 days on/2 days off, two cycles) | IC50 [2] | Test Example 2 residual ratio of the test substance [3] | solubility [4] | Papp [5] | the number of individuals in which a tumor was not observed by visual judgment/total number of mice ([1]; Compound of Example 1 35 mg/kg oral bid for 5 days combined with Dasatinib 5 mg/kg qd, * P 0.05 or less vs Dasatinib alone (Fisher's test)) | the number of individuals in which a tumor was not observed by visual judgment/total number of mice ([1]; Compound of Example 1 50 mg/kg oral bid for 5 days combined with Dasatinib 5 mg/kg qd, *** P 0.01 or less vs Dasatinib alone (Fisher's test)) | the number of individuals in which a tumor was not observed by visual judgment/total number of mice ([1]; Compound of Example 1 75 mg/kg oral bid for 5 days combined with Dasatinib 5 mg/kg qd, *** P 0.01 or less vs Dasatinib alone (Fisher's test)) | solubility [6] |
| --- | --- | --- | --- | --- | --- | --- | --- | --- | --- |
| Cc1nc(Nc2ncc(C(=O)Nc3c(C)cccc3Cl)s2)cc(N2CCN(CCO)CC2)n1 [Dasatinib, reference compound] | 0/9 |  |  |  |  |  |  |  |  |
| C=CCN1CC(=O)N2[C@@H](Cc3ccc(O)cc3F)C(=O)N(Cc3cccc(N4CC(N5CCN(CC)CC5)C4)n3)C[C@@H]2N1C(=O)NCc1ccccc1 [Example 1, (6S,9aS)-N-Benzyl-8-((6-(3-(4-ethylpiperazin-1-yl)azetidin-1-yl)pyridin-2-yl)methyl)-6-((2-fluoro-4-hydroxyphenyl)methyl)-4,7-dioxo-2-(prop-2-en-1-yl)-octahydro-1H-pyrazino[2,1-c][1,2,4]triazine-1-carboxamide] |  | 60 nM | 47% | 197 µM (≈ 143 µg/mL) | 2.01 ×10⁻⁶ cm/s | 6/10* | 9/10*** | 10/10*** |  |
| C=CCN1CC(=O)N2[C@@H](Cc3ccc(OP(=O)(O)O)cc3F)C(=O)N(Cc3cccc(N4CC(N5CCN(CC)CC5)C4)n3)C[C@@H]2N1C(=O)NCc1ccccc1 [Example 25, 4-(((6S,9aS)-1-(Benzylcarbamoyl)-8-((6-(3-(4-ethylpiperazin-1-yl)azetidin-1-yl)pyridin-2-yl)methyl)-4,7-dioxo-2-(prop-2-en-1-yl)-octahydro-1H-pyrazino[2,1-c][1,2,4]triazin-6-yl)methyl)-3-fluorophenyl dihydrogen phosphate] |  | 180 nM |  |  |  |  |  |  | ≥ 124000 µM |
| C=CCN1CC(=O)N2C(CN(Cc3cccc(N4CC(N5CCN(CC)CC5)C4)n3)C(=O)[C@@H]2Cc2ccc(OP(=O)(O)O)cc2)N1C(=O)NCc1ccccc1 (stereo partly drawn) [Example 26, 4-(((6S,9aS)-1-(Benzylcarbamoyl)-8-((6-(3-(4-ethylpiperazin-1-yl)azetidin-1-yl)pyridin-2-yl)methyl-4,7-dioxo-2-(prop-2-en-1-yl)-octahydro-1H-pyrazino[2,1-c][1,2,4]triazin-6-yl)methyl)phenyldihydrogen phosphate] |  | 1190 nM |  |  |  |  |  |  | 42000 to 62000 µM |
| C=CCN1CC(=O)N2[C@@H](Cc3ccc(O)cc3)C(=O)N(Cc3cccc(N4CC(N5CCN(C)[C@@H](C)C5)C4)n3)C[C@@H]2N1C(=O)NCc1ccccc1 [Example 27, (6S,9aS)-N-Benzyl-8-((6-(3-((3S)-3,4-dimethylpiperazin-1-yl)azetidin-1-yl)pyridin-2-yl)methyl)-6-((4-hydroxyphenyl)methyl)-4,7-dioxo-2-(prop-2-en-1-yl)-octahydro-1H-pyrazino[2,1-c][1,2,4]triazine-1-carboxamide] |  | 400 nM | 57% | 199 µM (≈ 141 µg/mL) | 1.04 ×10⁻⁶ cm/s |  |  |  |  |
| C=CCN1CC(=O)N2[C@@H](Cc3ccc(O)cc3)C(=O)N(Cc3cccc(N4CC(N5CCN(C)[C@H](C)C5)C4)n3)C[C@@H]2N1C(=O)NCc1ccccc1 [Example 28, (6S,9aS)-N-Benzyl-8-((6-(3-((3R)-3,4-dimethylpiperazin-1-yl)azetidin-1-yl)pyridin-2-yl)methyl)-6-((4-hydroxyphenyl)methyl)-4,7-dioxo-2-(prop-2-en-1-yl)-octahydro-1H-pyrazino[2,1-c][1,2,4]triazine-1-carboxamide] |  | 380 nM | 55% | 198 µM (≈ 140 µg/mL) | 0.95 ×10⁻⁶ cm/s |  |  |  |  |
| C=CCN1CC(=O)N2[C@@H](Cc3ccc(O)cc3)C(=O)N(Cc3ccc(F)c(N4CC(N5CCC(N(C)C)CC5)C4)n3)C[C@@H]2N1C(=O)NCc1ccccc1 [Reference Example 1, (6S,9aS)-N-Benzyl-8-((6-(3-(4-(dimethylamino)piperidin-1-yl)azetidin-1-yl)-5-fluoropyridin-2-yl)methyl)-6-((4-hydroxyphenyl)methyl)-4,7-dioxo-2-(prop-2-en-1-yl)-octahydro-1H-pyrazino[2,1-c][1,2,4]triazine-1-carboxamide] |  | 240 nM | 54% | 193 µM (≈ 143 µg/mL) | 0.62 ×10⁻⁶ cm/s |  |  |  |  |
| C=CCN1CC(=O)N2[C@@H](Cc3ccc(O)cc3F)C(=O)N(Cc3cccc(N4CC(N5CC[C@@H](N(C)C)C5)C4)n3)C[C@@H]2N1C(=O)NCc1ccccc1 [Reference Example 2, (6S,9aS)-N-Benzyl-8-((6-(3-((3R)-3-(dimethylamino)pyrrolidin-1-yl)azetidin-1-yl)pyridin-2-yl)methyl)-6-((2-fluoro-4-hydroxyphenyl)methyl)-4,7-dioxo-2-(prop-2-en-1-yl)-octahydro-1H-pyrazino[2,1-c][1,2,4]triazine-1-carboxamide] |  | 330 nM | 51% | 195 µM (≈ 142 µg/mL) | 0.65 ×10⁻⁶ cm/s |  |  |  |  |
| C=CCN1CC(=O)N2[C@@H](Cc3ccc(O)cc3F)C(=O)N(Cc3ccc(F)c(N4CC(N5CCC(N(C)C)CC5)C4)n3)C[C@@H]2N1C(=O)NCc1ccccc1 [Reference Example 3, (6S,9aS)-N-Benzyl-8-((6-(3-(4-(dimethylamino)piperidin-1-yl)azetidin-1-yl)-5-fluoropyridin-2-yl)methyl)-6-((2-fluoro-4-hydroxyphenyl)methyl)-4,7-dioxo-2-(prop-2-en-1-yl)-octahydro-1H-pyrazino[2,1-c][1,2,4]triazine-1-carboxamide] |  | 110 nM | 50% | 199 µM (≈ 151 µg/mL) | 0.55 ×10⁻⁶ cm/s |  |  |  |  |
| C=CCN1CC(=O)N2[C@@H](Cc3ccc(O)cc3F)C(=O)N(Cc3ccc(F)c(N4CC(N5C[C@@H]6C[C@H]5CN6C(C)C)C4)n3)C[C@@H]2N1C(=O)NCc1ccccc1 [Reference Example 4, (6S,9aS)-N-Benzyl-6-((2-fluoro-4-hydroxyphenyl)methyl)-8-((5-fluoro-6-(3-((1S,4S)-5-(propan-2-yl)-2,5-diazabicyclo[2.2.1]heptan-2-yl)azetidin-1-yl)pyridin-2-yl)methyl)-4,7-dioxo-2-(prop-2-en-1-yl)-octahydro-1H-pyrazino[2,1-c][1,2,4]triazine-1-carboxamide] |  | 150 nM | 34% | 198 µM (≈ 152 µg/mL) | 0.68 ×10⁻⁶ cm/s |  |  |  |  |
| C=CCN1CC(=O)N2[C@@H](Cc3ccc(O)cc3F)C(=O)N(Cc3cccc(N4CC(N(C)CCN5CCOCC5)C4)n3)C[C@@H]2N1C(=O)NCc1ccccc1 [Reference Example 5, (6S,9aS)-N-Benzyl-6-((2-fluoro-4-hydroxyphenyl)methyl)-8-((6-(3-(methyl(2-(morpholin-4-yl)ethyl)amino)azetidin-1-yl)pyridin-2-yl)methyl)-4,7-dioxo-2-(prop-2-en-1-yl)-octahydro-1H-pyrazino[2,1-c][1,2,4]triazine-1-carboxamide] |  | 130 nM | 22% | 181 µM (≈ 137 µg/mL) | 2.25 ×10⁻⁶ cm/s |  |  |  |  |
| C=CCN1CC(=O)N2[C@@H](Cc3ccc(O)cc3F)C(=O)N(Cc3ccc(F)c(N4CC(N(C)CCN(C)C)C4)n3)C[C@@H]2N1C(=O)NCc1ccccc1 [Reference Example 6, (6S,9aS)-N-Benzyl-8-((6-(3-((2-(dimethylamino)ethyl)(methyl)amino)azetidin-1-yl)-5-fluoropyridin-2-yl)methyl)-6-((2-fluoro-4-hydroxyphenyl)methyl)-4,7-dioxo-2-(prop-2-en-1-yl)-octahydro-1H-pyrazino[2,1-c][1,2,4]triazine-1-carboxamide] |  | 190 nM | 28% | 190 µM (≈ 139 µg/mL) | 1.7 ×10⁻⁶ cm/s |  |  |  |  |
